According to PMC8648852, “Pyrazoline derivatives as promising novel antischistosomal agents” (Scientific Reports, 2021):

Columns and labels:
[1] = Cytotoxicity assay (MTT), SH-SY5Y cells; format: cell-based, human; conditions: human, SH-SY5Y cells (human neuroblastoma); SH-SY5Y cells, 72 h, MTT
Description: (§1) The selectivity index (SI) of a compound is a widely accepted parameter used to express a drug’s in vitro efficacy. Therefore, the cytotoxic effect of these six pyrazolines (16, 18, 19, 21, 22 and 23) was evaluated using a monkey cell line (Vero) and a human cell line (SH-SY5Y). Cells were incubated with each compound at a range of concentrations for determination of cytotoxic concentrations 50% (CC50). […] With the EC50 data collected for schistosomes as well as the CC50 for animal and human cells, the selectivity indices (SI) were determined for each of the pyrazolines tested (Table 1). […] A SI value ≥ 10 is in accordance with the criteria defined by the WHO for antiparasitic hits, leads, and drug candidates. […] Comparatively, the SI values achieved with pyrazolines exceeded those obtained for other relevant heterocyclic compounds with antischistosomal properties[21],[22]. Although the SI values recorded for pyrazolines were more than 10 times below those for the reference drug praziquantel, a SI value ≥ 10 fulfills and exceeds the criteria established by the WHO for potential compounds as anthelmintic agents. The cytotoxicity of compounds was tested against Vero cells (African green monkey kidney cells obtained from the American Type Culture Collection, ATCC; Manassas, VA, USA) and SH-SY5Y cells (human neuroblastoma obtained from Banco de Células do Rio de Janeiro, BCRJ, RJ, Brazil). Cells was cultured in DMEM medium supplemented with 10% fetal calf serum, penicillin (100 U/mL) and streptomycin (100 µg/mL) and 2 mM of L-glutamine at 37 °C and in a 5% CO2 humidified incubator (Panasonic). The DMEM contained 1 or 4 mg/mL glucose for Vero and SH-SY5Y cells, respectively. Cytotoxicity assay was performed as previously described[25],[26]. Briefly, cells were seeded in 96-well plates (Corning) in DMEM medium and incubated with twofold serial drug starting at 200 μM following a 24 h adhesion period at 37 °C in 5% CO2. After 72 h, MTT was added and incubation was continued for another 3 h. The plate was then read using spectrophotometer (Epoch Microplate Spectrophotometer, BioTek Instruments, Winooski, VT, USA) at 595 nm. The assay was conducted in duplicate and repeated three times. Values were expressed as percentage of the control and 50% cytotoxic concentration (CC50) values were calculated. The selectivity indices (SI) of tested compounds were calculated by dividing CC50 values obtained on mammalian cells with EC50 values determined on S. mansoni.

SH-SY5Y cells = test: Cytotoxicity assay (MTT), SH-SY5Y cells; format: cell-based, human; conditions: CC50 (SH-SY5Y) divided by EC50 (S. mansoni)
Description: as §1

S. mansoni adult worm = test: In vitro antischistosomal assay (viability of ex vivo adult worms); format: cell-based, Schistosoma mansoni; conditions: for Time until all parasites were dead: 50 μM; for Antiparasitic activity in initial screen: 50 µM, after 72 h, adult worms; for EC50: 72 h, ex vivo adult schistosomes, brackets = 95% confidence interval; for Death of all worms within 24 h: 25 μM
Description: For biological screening, S. mansoni adult parasites were isolated from the mouse infection model (parasite ex vivo) and all compounds were initially screened at 50 µM. The gold-standard antiparasitic compound praziquantel was used as a positive control and DMSO at 0.5% v/v (representing the highest concentration of solvent) served as a negative control. […] For the remaining compounds tested, no EC50 values could be calculated due to lack of activity at 50 μM. […] In tandem, our findings confirm that pyrazolines have a potent antiparasitic activity. Indeed, few compounds in the literature are active at low concentrations for review see[11],[19]. According to criteria established by the World Health Organization (WHO) for antiparasitic hits, leads, and drug candidates, at the start of a screening campaign a compound should inhibit mobility of helminths in vitro at 10 μg/mL[20], commonly ranging from 30 to 40 μM. Thus, the anthelminthic activity of pyrazolines surpasses criteria established by the WHO.
(§2) Adult schistosomes (BH strain) were isolated from infected mice and cultured in RPMI medium + 10% fetal calf serum and 100 U/mL penicillin and 100 μg/mL streptomycin in a 24-well culture plate (Corning, New York, NY, USA) containing one pair of parasites per well at 37 °C and 5% CO2 (Panasonic Healthcare, Sakata, Oizumi-machi, Japan)[38],[39]. For antischistosomal assay, compounds were dissolved in DMSO (final concentration of 0.5% v/v). Each drug concentration was tested at least in triplicate, and the experiments were repeated three times. The initial concentration of the pyrazolines and praziquantel was 50 μM and 3 μM, respectively, which was serially diluted in medium with twofold dilutions to give six concentrations[40],[41]. The negative control worms were assayed in RPMI 1640 medium and RPMI 1640 with 0.5% DMSO. Parasites were monitored daily at 24, 48 and 72 h under a stereomicroscope (Leica Microsystems EZ4E, Wetzlar, Germany) and an inverted microscope (BEL Engineering INV 100, Monza, MB, Italy). Egg production was evaluated daily as previously described. Parasite viability was averaged and 50% effective concentrations (EC50) were calculated using GraphPad Prism software[24],[43].

[2] = Cytotoxicity assay (MTT), Vero cells; format: cell-based, African green monkey; conditions: African green monkey, Vero cells (African green monkey kidney cells); Vero cells, 72 h, MTT; brackets = 95% confidence interval
Description: as §1

Vero cells = test: Cytotoxicity assay (MTT), Vero cells; format: cell-based, African green monkey; conditions: CC50 (Vero) divided by EC50 (S. mansoni)
Description: as §1

[3] = system: paired adult schistosomes (S. mansoni); test: Egg production (fecundity) of paired adult schistosomes in vitro; format: cell-based, Schistosoma mansoni; conditions: sublethal concentrations (6.25 μM for 16, 12.5 μM for 19 and 23), compared to control
Description: Based on antischistosomal properties of pyrazolines 16, 18, 19, 21, 22 and 23, the ability of these six compounds to affect fecundity (egg production) was subsequently measured. […] To further investigate this effect on schistosome fecundity, parasites were tested using sublethal concentrations (3.5 μM for compound 22, 6.25 μM for compound 16, and 12.5 μM for compounds 18, 19, 21, and 23).
as §2

EC50 (S. mansoni adult worm; Schistosoma mansoni) [µM] | EC50 (S. mansoni adult worm) [µM] | SMILES | CC50 at 72 h [1] [µM] | Human cells SI (selectivity index) (SH-SY5Y cells) | Time until all parasites were dead (S. mansoni adult worm) [h] | Antiparasitic activity in initial screen (S. mansoni adult worm) | CC50 at 72 h [2] [µM] | Monkey cells SI (selectivity index) (Vero cells) | Death of all worms within 24 h (S. mansoni adult worm) | Reduction in the number of eggs [3]
< 20 | 19.8 | CN(C)c1ccc(C2CC(c3ccc(F)cc3)=NN2C(N)=O)cc1 (stereo not shown) [Compound 21, 5-(4-(dimethylamino)phenyl)-3-(4-fluorophenyl)-4,5-dihydropyrazole-1-carboxamide] | > 200 | > 10.1 | 48 | showed antiparasitic activity | > 200 | > 10.1 |  | 
0.93 |  | O=C(C1CCCCC1)N1CC(=O)N2CCc3ccccc3C2C1 (stereo not shown) [PZQ, praziquantel, reference compound] | > 200 |  |  |  | > 200 |  |  | 
< 20 | 13.8 | CCCCCCCCCOc1ccc(C2CC(c3ccccc3)=NN2C(N)=O)cc1 (stereo not shown) [Compound 16, 4,5-dihydro-5-(4-(nonyloxy)phenyl)-3-phenylpyrazole-1-carboxamide] | > 200 | > 14.5 | ≤ 24 | showed antiparasitic activity | 155 | 11.2 | death of all worms | 30–70%
< 20 | 17.4 | Cc1ccc(C2CC(c3ccc(F)cc3)=NN2C(N)=O)cc1 (stereo not shown) [Compound 19, 3-(4-fluorophenyl)-4,5-dihydro-5-p-tolylpyrazole-1-carboxamide] | > 200 | > 11.5 | ≤ 24 | showed antiparasitic activity | 169 | 9.7 |  | 30–70%
< 10 | 6.2 | NC(=O)N1N=C(c2ccc(F)cc2)CC1c1ccc(Cl)cc1 (stereo not shown) [Compound 22, 5-(4-chlorophenyl)-3-(4-fluorophenyl)-4,5-dihydropyrazole-1-carboxamide] | > 200 | > 32.2 | ≤ 24 | showed antiparasitic activity | 134 | 21.6 | death of all worms | 
< 20 | 14.6 | CCCCCCCCCCOc1ccc(C2CC(c3ccc(F)cc3)=NN2C(N)=O)cc1 (stereo not shown) [Compound 18, 5-(4-(decyloxy)phenyl)-3-(4-fluorophenyl)-4,5-dihydropyrazole-1-carboxamide] | > 200 | > 13.7 | ≤ 24 | showed antiparasitic activity | 159 | 10.9 |  | 
28.2 |  | CCCCCCOc1ccc(C2CC(c3ccccc3)=NN2C(N)=S)cc1 (stereo not shown) [Compound 23, 4,5-dihydro-5-(4-(hexyloxy)phenyl)-3-phenylpyrazole-1-carbothioamide] | > 200 | > 7.1 | 72 | showed antiparasitic activity | > 200 | > 7.1 |  | 30–70%
